Assay: gradient 5% acetonitrile 3 min, to 50% in 2 min, to 85% in 15 min, held 3 min, 100 µL/min
Conditions: column: Zorbax Extend-C18 2.1 x 50 mm; eluents: water / acetonitrile, 0.1% formic acid
Procedure, shortened: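 Pure standards were run in mixtures of ~100 molecules by HPLC coupled to a quadrupole time-of-flight mass spectrometer. The column was a Zorbax Extend-C18 (2.1 × 50 mm, 1.8 μm) at 100 μL/min, with water and acetonitrile each containing 0.1% formic acid, in positive and negative ionization mode. Dead and dwell volumes were 40 μL and 900 μL. Retention time was taken from computationally picked adduct peaks, each manually inspected, with data collected over 3 months.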

With `CCn1ccc2c(cc(C(=O)Nc3ccc(Cl)cc3C)n2C)c1=O` as the molecule, how does the RP-LC retention time read?
Its RP-LC retention time is 1320 s.

Which RP-LC retention time does the source give for `CCCc1cc(N2CCN(C(=O)c3cccc(N(C)C)c3)CC2)nc2nnc(C)n12` here?
The RP-LC retention time was 606 s.

With `NC(=O)c1cc(N2CC2)c([N+](=O)[O-])cc1[N+](=O)[O-]` as the molecule, how does the RP-LC retention time read?
Its RP-LC retention time is 650 s.

For `O=C(Nc1ccc(F)cc1)N1CCCCCC1`, which RP-LC retention time is on record?
The RP-LC retention time was 738 s.

Which RP-LC retention time does the source give for `COc1ccc2[nH]cc(CCNC(=O)c3ccc(F)cc3)c2c1` here?
The RP-LC retention time was 778 s.

With `COc1cccc(C(=O)N2C[C@@H]3C[C@H](NC(=O)c4cccs4)[C@H]2C3)c1OC` as the molecule, how does the RP-LC retention time read?
The RP-LC retention time was 679 s.

With `CCN1C(=O)c2c(C(=O)NCc3ccc(C)cc3)ncn2CC1(C)C(=O)NC1CCCC1` (centres undefined) as the molecule, how does the RP-LC retention time read?
The RP-LC retention time was 783 s.

For `CC(=O)N1CCc2cc(-c3ccc(C(=O)N4CCC(C)CC4)cc3)ccc21`, which RP-LC retention time is on record?
The RP-LC retention time was 889 s.

For `Cc1cccc(N2C(=O)CN(Cc3ccccc3F)[C@H]3CS(=O)(=O)C[C@H]32)c1`, which RP-LC retention time is on record?
The RP-LC retention time was 803 s.

For `CCSc1nnc2c(n1)OC(c1cccn1C)N(C(C)=O)c1ccccc1-2` (centres undefined), which RP-LC retention time is on record?
The RP-LC retention time was 788 s.

Which RP-LC retention time does the source give for `Brc1ccc(CSc2nnc3ccc(-c4cccnc4)nn23)cc1` here?
The RP-LC retention time was 723 s.

Which RP-LC retention time does the source give for `CCc1nc(N)n(CC(=O)Nc2ccccc2F)c(=O)c1C` here?
The RP-LC retention time was 599 s.

For `O=C(Cc1cccc(Cl)c1)NC1CCN(c2cc(-c3ccc(F)cc3)[nH]n2)C1` (centres undefined), which RP-LC retention time is on record?
Its RP-LC retention time is 741 s.

With `CCn1c(C)c(C(=O)C(C)N(C(=O)c2ccc(C)cc2)C2CC2)c(C)c1C(=O)OC` (centres undefined) as the molecule, how does the RP-LC retention time read?
Its RP-LC retention time is 1040 s.

For `Cc1ccc(Cn2ccn3nc(-c4ccccc4)c(CO)c3c2=O)cc1`, which RP-LC retention time is on record?
The RP-LC retention time was 964 s.

For `CCn1cc(-c2nc(C(=O)Nc3cc(OC)cc(OC)c3)cs2)c2cccnc21`, which RP-LC retention time is on record?
The RP-LC retention time was 1030 s.

With `Cn1nc(C(=O)N2CCOCC2)c2c1CCN(C(=O)Nc1ccccc1Br)C2` as the molecule, how does the RP-LC retention time read?
The RP-LC retention time was 674 s.

Which RP-LC retention time does the source give for `CCn1nnnc1NCc1ccc2c(c1)n(C)c(=O)n2C` here?
Its RP-LC retention time is 617 s.

Which RP-LC retention time does the source give for `O=c1n(CCOc2ccccc2)nc2c(S(=O)(=O)N3CCN(c4ccc(F)cc4)CC3)cccn12` here?
Its RP-LC retention time is 1000 s.

Which RP-LC retention time does the source give for `CC(C)(C)c1ccc(OCC(=O)Nc2ccnn2Cc2ccco2)cc1` here?
The RP-LC retention time was 1010 s.

With `CCc1ccc(S(=O)(=O)c2cnc(N3CCN(c4ccccc4F)CC3)nc2N)cc1` as the molecule, how does the RP-LC retention time read?
The RP-LC retention time was 1200 s.

Which RP-LC retention time does the source give for `Cc1ccc(F)cc1NC(=O)Cn1cnc2nc(N3CCCC(C(=O)NC(C)C)C3)sc2c1=O` (centres undefined) here?
Its RP-LC retention time is 712 s.

For `Cc1nn(Cc2ccc(C(=O)NCC3CC3)cc2)c(C)c1S(=O)(=O)N1CCCCC1`, which RP-LC retention time is on record?
The RP-LC retention time was 859 s.

With `CC1CCN(S(=O)(=O)c2ccc(-c3nnc(C(=O)NCCC4=CCCCC4)o3)cc2)CC1` as the molecule, how does the RP-LC retention time read?
The RP-LC retention time was 1190 s.

For `CCOC(=O)C(C)NC(=O)N1CCN(Cc2nc3cccnc3n2-c2cc(C)cc(C)c2)CC1` (centres undefined), which RP-LC retention time is on record?
Its RP-LC retention time is 658 s.

With `COc1cc(NC(=O)c2ccc(-n3cnc(NC(=O)C4CC4)c3)cc2)cc(OC)c1` as the molecule, how does the RP-LC retention time read?
Its RP-LC retention time is 744 s.

With `CC(C)(C)c1noc(-c2ccc(-n3cnc(C(=O)N4CCSCC4)c3)nc2)n1` as the molecule, how does the RP-LC retention time read?
The RP-LC retention time was 963 s.

With `COCCCNC(=O)c1ccc(-c2ccc(Oc3ccccc3)nn2)cc1` as the molecule, how does the RP-LC retention time read?
The RP-LC retention time was 757 s.

With `CNC(=O)C1CCCN(c2nc3ncn(CC(=O)Nc4ccccc4)c(=O)c3s2)C1` (centres undefined) as the molecule, how does the RP-LC retention time read?
Its RP-LC retention time is 634 s.

For `Cn1c(CNC(=O)c2cccc(N3CCNC(c4ccccc4)C3)n2)nc2ccccc21` (centres undefined), which RP-LC retention time is on record?
Its RP-LC retention time is 573 s.

Which RP-LC retention time does the source give for `CCCCn1cc(S(=O)(=O)NCc2ccccc2Cl)c2cccnc21` here?
The RP-LC retention time was 996 s.

Which RP-LC retention time does the source give for `O=C(c1cnccn1)N1CC(c2nc(CCOCC3CCCC3)no2)C1` here?
The RP-LC retention time was 601 s.

With `Cc1cccc(-c2cc3n(n2)CCCN(C(=O)Cc2cccc(C(F)(F)F)c2)C3)c1` as the molecule, how does the RP-LC retention time read?
The RP-LC retention time was 1030 s.

For `Cc1ccc(Cl)cc1NS(=O)(=O)c1cc(-c2nc(C(C)C)cs2)cs1`, which RP-LC retention time is on record?
Its RP-LC retention time is 1230 s.

Which RP-LC retention time does the source give for `COc1ccc(CCNC(=O)Cn2nc3c(Oc4ccccc4)nccn3c2=O)cc1OC` here?
Its RP-LC retention time is 700 s.

For `CCN1CCCn2cc(S(=O)(=O)Nc3cccc(Cl)c3)cc2C1=O`, which RP-LC retention time is on record?
Its RP-LC retention time is 770 s.

Which RP-LC retention time does the source give for `CCCNC(=O)C1CCN(c2ccc(SCC(=O)Nc3c(F)cccc3F)nn2)CC1` here?
The RP-LC retention time was 614 s.

For `COc1cccc(NC(=O)c2c(O)c3cccnc3n(-c3ccc(F)cc3)c2=O)c1`, which RP-LC retention time is on record?
The RP-LC retention time was 1200 s.

For `CSc1ccccc1CN1CCC(CNC(=O)C2(c3ccc(F)cc3)CC2)CC1`, which RP-LC retention time is on record?
The RP-LC retention time was 596 s.

With `CCc1nc(-c2csc(S(=O)(=O)N3CCC(C(=O)N4CCCCC4)CC3)c2)no1` as the molecule, how does the RP-LC retention time read?
The RP-LC retention time was 903 s.

For `CCCn1c(=O)sc2cc(S(=O)(=O)N3CCC(C(=O)N4CCc5ccccc5C4)CC3)ccc21`, which RP-LC retention time is on record?
The RP-LC retention time was 989 s.

For `Cc1oc(-c2ccccc2)nc1Cn1ccn2nc(-c3ccc(F)cc3)cc2c1=O`, which RP-LC retention time is on record?
Its RP-LC retention time is 1100 s.

For `CNC(=O)c1cc(C)nc2ccc(Cl)cc12`, which RP-LC retention time is on record?
The RP-LC retention time was 607 s.

With `CS(=O)(=O)Nc1nc2ccccc2[nH]1` as the molecule, how does the RP-LC retention time read?
The RP-LC retention time was 645 s.

From the METLIN SMRT retention time set (Domingo-Almenara et al. 2019)
